Read-outs that look alike come from different tables or passages of the source.
How the values were obtained:
[1] = test system: human washed platelets; assay: Intracellular calcium mobilisation in washed platelets (Fluo-4 AM); format: cell-based; settings: CRP-XL 0.5 μg/mL
Description: Based on the above results achieved in washed platelets and PRP, chrysin and Ru-thio-chrysin were tested to evaluate their effects on the modulation of calcium mobilisation.
The calcium traces (Ai and Bi) shown are representative of three separate experiments. The maximum fluorescence obtained with each sample was converted into percentages to calculate the level of calcium mobilisation obtained with vehicle and chrysin or Ru-thio-chrysin treated samples.
The intracellular calcium levels in platelets were measured using Fluo-4 AM calcium-sensitive dye by spectrofluorimetry. […] Data were analysed by calculating the maximum level of calcium released in each sample.

[2] = test system: platelets (PRP); assay: LDH cytotoxicity assay in PRP; format: cell-based, human; settings: between 6.25 and 100 μM
Description: In order to examine whether the native chrysin and its synthetic derivatives exert any cytotoxic effects in platelets at the concentrations used in this study, the lactate dehydrogenase (LDH) assay was performed using PRP.
The LDH cytotoxicity assay was performed using the LDH Cytotoxicity Assay Kit (Pierce, Thermo Fisher, UK) according to the manufacturer’s instructions. In brief, the PRP was incubated at 37 °C for 30 minutes. […] Following incubation, the reaction mixture (provided in the kit) was added to the PRP and incubated for 30 minutes. The reaction was then stopped using a stop solution provided in the kit. The absorbance of the mixture was measured at 490–650 nm using a Fluostar Optima spectrofluorimeter (BMG Labtech, Germany). Results provided represent duplicate absorbance measures from three separate donors.
Figure S7: Cytotoxic effects of chrysin and its synthetic derivatives in platelets. PRP was treated with different concentrations (as used in other experiments) of chrysin or its synthetic derivatives and the LDH cytotoxicity assay was performed according to the manufacturer’s instructions. The data were obtained using platelets from three separate donors and duplicate measures were used for each donor.
(1 picture or pasted object on this page, not shown here)

[3] = test system: human platelet-rich plasma; settings: PRP; 100 μM compound; CRP-XL 0.5 μg/mL
Description: The calcium traces (Ai and Bi) shown are representative of three separate experiments. […] The platelets were lysed and used for immunoblot analysis to detect the level of AKT phosphorylation at residue S473, FAK phosphorylation at Y397 and phosphorylation of Src at Y527. The level of 14-3-3ζ protein was detected as a loading control. The cropped images of the blots shown here are representative of three separate experiments. The uncropped full length blots are presented in Supplementary Information (Figure S8).

[4] = test system: inside-out signalling to integrin αIIbβ3; settings: PRP, CRP-XL 0.5 μg/mL
Description: The level of fluorescence obtained with vehicle control was taken as 100% to calculate the extent of inhibition in chrysin and its derivatives-treated samples. R represents ‘resting’ platelets. Cumulative data represent mean ± S.D. (n = 4). […] Following incubation, clotting was initiated by the addition of 1 U/mL thrombin and the clot retraction was monitored for three hours. The remaining clot weight at three hours was measured to analyse the extent of retraction process. The image shown on the right is representative of four separate experiments. *Indicates significance with respect to controls and ^#indicates significance with respect to the respective chrysin concentrations; p values shown (*^,# p < 0.05, **^,## p < 0.01 and ***^,### p < 0.001) are as calculated by one-way ANOVA using Graphpad Prism.
The platelets (PRP) were treated with a vehicle control [0.1% (v/v) DMSO] or with different concentrations of chrysin and its synthetic derivatives prior to activation with CRP-XL (0.5 µg/mL). The levels of fibrinogen binding and P-selectin exposure were measured using FITC-labelled anti-human fibrinogen antibodies (Dako, UK) and PECy5-labelled CD62P antibodies (BD Biosciences, UK), respectively. The median fluorescence intensity was used to assess the levels of fibrinogen binding and P-selectin exposure on the platelet surface. The level of fluorescence obtained with the vehicle control was taken as 100% when compared with the treated samples.

| Molecule | effect on calcium mobilisation in washed platelets [1] | cytotoxic effects in platelets (LDH) [2] | reduction in calcium mobilisation [3] | inhibition of fibrinogen binding ([4]; 6.25 μM compound) | inhibition of fibrinogen binding ([4]; 100 μM compound) |
| --- | --- | --- | --- | --- | --- |
| O=c1cc(-c2ccccc2)oc2cc(O)cc(O)c12 [chrysin] | greater inhibitory effects on calcium mobilisation than Ru-thio-chrysin | did not show significant cytotoxic effects | – | – | – |
| chlorido [(5-oxo-κO)-7-hydroxy-(2-phenyl)-4H-chromen-4-thionato-κS] (η6-p-cymene)ruthenium(II) [Ru-thio-chrysin] | – | – | around 60% | 15–20% | ~90% |
